In patent US20240166645A1, “PYRIDOPYRIMIDINONE DERIVATIVE, PREPARATION METHOD THEREFOR, AND USE THEREOF” (Wuhan Humanwell Innovative Drug Research and Development …, priority 2021, published 2024):

How the values were obtained:
H358 cells = experiment: Inhibition of 3D cell proliferation (3D CellTiter-Glo); type: cell-based; conditions: Homo sapiens, NCI-H358, 168 h, read-out: IC50 (nM), inhibition of 3D proliferation of H358 cells, 7 days
Method: H358 cells were seeded in a T75 culture flask and cultured in a RPMI 1640 medium containing 10% FBS for 2 days for subsequent experiments in which the cells would be cultured or seeded on a 384-well plate.
On day 1, the cells were seeded on the 384-well plate, with 40 μL of medium added per well and serially diluted compounds or DMSO added per well, and an additional well without seeded cells but with medium was set up as a blank control. After culture at 37° C., 5% CO2 for 7 days, the plate was added with 3D CellTiter-Glo reagent (Promega, Cat. No. G9683) on day 8, shaken at 320 rpm for 20 min, and left at room temperature for 2 h. Luminescence signals were read on a multifunctional microplate reader. Cell viability inhibition rate was calculated as:
Cell viability inhibition rate=(DMSO group−test compound)/(DMSO group−blank control group)×100%
(§1) IC50 values were calculated using Graphpad 5 software.

[1] = tested on: ERK phosphorylation level in DLD-1 cells; experiment: Inhibition of ERK phosphorylation level in DLD-1 cells (intracellular western blot); type: cell-based; conditions: Homo sapiens
Method: Intracellular western blot quantitative analysis was used to detect the inhibitory level of compounds on ERK phosphorylation in DLD-1 cells.
DLD-1 cells (ATCC, CCL-221) were seeded in a T75 culture flask at 2.5×10^6 cells/flask and cultured in a RPMI 1640 medium containing 10% FBS for 2 days. On day 3, the cells were seeded on a 384-well plate, and cultured overnight at 37° C., 5% CO2. After overnight culture, the plate was added with serially diluted compounds (the final content of DMSO was 0.5%), the negative group was added with DMSO, and incubated in a 37° C., 5% CO2 incubator.
The cells were fixed, washed once with PBS, treated to disrupt membranes, and blocked at room temperature for 1 h. The blocking solution was removed. The plate was added with primary antibody (CST, Cat. No. #4370S), and incubated overnight at 4° C. The plate was washed 3 times with PBST (PBS solution added with 0.05% Tween-20) and soaked for 2 min each time. The plate was added with secondary antibody (LI-COR, Cat. No. 926-32211) and incubated at room temperature in the dark. The plate was washed 3 times with PBST and soaked for 2 min each time. The plate was centrifuged at 1000 rpm for 1 min, scanned on a two-color infrared laser imaging system (Odyssey® CLX) to read the signal.
Relative signal=800-channel signal values/700-channel signal values.
Relative expression level of ERK phosphorylation=(test compound−control compound I)/(DMSO group−control compound I)
as §1

KRAS G12C-SOS1 = KRAS G12C-SOS1 (Homo sapiens (Human), UniProt Q07889); experiment: Inhibition test of compounds on KRAS G12C::SOS1 binding; conditions: GST-KRAS G12C, His-SOS1
Chain of KRAS G12C-SOS1 (Q07889 whole entry, stated change not applied): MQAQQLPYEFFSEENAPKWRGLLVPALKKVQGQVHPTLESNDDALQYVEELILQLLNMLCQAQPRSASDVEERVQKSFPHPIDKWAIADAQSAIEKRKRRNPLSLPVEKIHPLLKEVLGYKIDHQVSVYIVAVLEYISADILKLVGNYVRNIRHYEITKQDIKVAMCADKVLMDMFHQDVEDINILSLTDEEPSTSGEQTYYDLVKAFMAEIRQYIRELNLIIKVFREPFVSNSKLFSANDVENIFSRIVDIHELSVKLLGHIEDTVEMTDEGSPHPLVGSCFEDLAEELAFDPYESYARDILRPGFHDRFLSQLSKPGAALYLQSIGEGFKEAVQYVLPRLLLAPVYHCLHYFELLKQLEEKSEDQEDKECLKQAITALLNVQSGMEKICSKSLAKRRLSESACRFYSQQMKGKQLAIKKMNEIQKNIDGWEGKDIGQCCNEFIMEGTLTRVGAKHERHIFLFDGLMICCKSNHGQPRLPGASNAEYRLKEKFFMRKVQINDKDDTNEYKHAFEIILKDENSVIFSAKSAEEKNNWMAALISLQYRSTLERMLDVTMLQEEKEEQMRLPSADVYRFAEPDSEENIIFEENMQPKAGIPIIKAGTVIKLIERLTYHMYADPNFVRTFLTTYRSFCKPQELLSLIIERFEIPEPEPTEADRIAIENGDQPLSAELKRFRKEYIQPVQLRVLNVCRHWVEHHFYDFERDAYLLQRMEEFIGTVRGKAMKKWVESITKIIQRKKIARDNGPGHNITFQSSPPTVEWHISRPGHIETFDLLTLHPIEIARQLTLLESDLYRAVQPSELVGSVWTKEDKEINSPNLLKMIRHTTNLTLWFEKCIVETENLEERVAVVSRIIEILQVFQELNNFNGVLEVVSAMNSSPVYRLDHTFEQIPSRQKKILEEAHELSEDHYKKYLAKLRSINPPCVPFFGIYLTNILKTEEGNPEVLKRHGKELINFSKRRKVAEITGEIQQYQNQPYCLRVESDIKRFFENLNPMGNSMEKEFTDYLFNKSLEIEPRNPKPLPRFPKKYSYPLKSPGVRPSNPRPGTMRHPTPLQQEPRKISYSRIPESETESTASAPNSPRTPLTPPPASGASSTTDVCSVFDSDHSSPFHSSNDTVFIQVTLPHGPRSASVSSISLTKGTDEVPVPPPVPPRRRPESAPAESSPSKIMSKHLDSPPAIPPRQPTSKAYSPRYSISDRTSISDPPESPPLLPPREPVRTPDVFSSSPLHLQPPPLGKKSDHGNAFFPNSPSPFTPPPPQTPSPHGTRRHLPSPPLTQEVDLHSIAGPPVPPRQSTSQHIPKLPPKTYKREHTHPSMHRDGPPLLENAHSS
Method: The compound to be tested was prepared into a 10 mM stock solution with DMSO, and the compound was serially diluted using 1× test buffer. 0.1 μL of the compound solution with different concentrations was transferred to a 384-well plate. […] 5 μL of His-SOS1 was added to the 384-well plate, centrifuged at 1000 rpm for 1 min, and incubated at room temperature for 15 min.
After incubation, 10 μL of a mixed solution of anti-6his-Tb monoclonal antibody (Cisbio, Cat. No. 61HI2TLA) and anti-GST-XL665 monoclonal antibody (Cisbio, Cat. No. 61GSTXLA) was added to the test well, centrifuged at 1000 rpm for 1 min, and incubated at room temperature for 1 h.
After incubation, the fluorescence signal ratios at 665 nm and 615 nm were read on a multifunctional microplate reader (Perkin Elmer, Envision 2104), and the IC50 values were calculated using Graphpad 5 software.

[2] = tested on: Mia Paca-2 pancreatic cancer; experiment: Mia Paca-2 pancreatic cancer in vivo efficacy test; parameters: species or system mice; conditions: Mia Paca-2, 0.125 mg/kg BID
Method: After one week of adaptive feeding of mice, Mia Paca-2 cells in a log phase were resuspended in serum-free DMEM, and then mixed with Matrigel in a ratio of 1:1.1×10^7 Mia Paca-2 cells were inoculated subcutaneously at the right flank at 100 μL per mouse, and tumor growth was observed regularly. When the tumor grew to an average volume of 150 to 200 mm^3, the mice were randomly divided into a model group and an administration group (single drug, in combination with trametinib) based on the tumor size and body weight. The tumor size and body weight were measured and recorded before and during the administration. After the treatment, the tumor size in the model group was compared with that in the administration group to determine the efficacy.

[3] = Pharmacokinetic test in mice; type: in vivo; conditions: mouse, plasma; male ICR mice, oral gavage, 10 mg/kg
Method: Male ICR mice (20 to 25 g) were used and fasted overnight. Three mice were taken and orally administered by gavage (10 mg/kg). Blood was collected before the administration, and at 15 min, 30 min, 1 h, 2 h, 4 h, 8 h and 24 h after the administration. 6,800 g of the blood samples were centrifuged at 2 to 8° C. for 6 min, and plasma was collected and stored at −80° C. The plasma at each time point was taken and added with an acetonitrile solution containing internal standard in 3 to 5 times the amount, vortexed and mixed for 1 min, and centrifuged at 13,000 rpm/min at 4° C. for 10 min. The supernatant was collected, added with water in 3 times the amount, and mixed. An appropriate amount of the mixture was taken for LC-MS/MS analysis. The main pharmacokinetic parameters were analyzed using WinNonlin 7.0 software with non-compartmental model.

CYP3A4 = CYP3A4 (Homo sapiens (Human), UniProt P08684); experiment: Inhibition test on cytochrome P450 subtype CYP3A4; type: in vitro ADME; conditions: at 10 μM, compared with the control compound I
Chain of CYP3A4 (P08684 whole entry): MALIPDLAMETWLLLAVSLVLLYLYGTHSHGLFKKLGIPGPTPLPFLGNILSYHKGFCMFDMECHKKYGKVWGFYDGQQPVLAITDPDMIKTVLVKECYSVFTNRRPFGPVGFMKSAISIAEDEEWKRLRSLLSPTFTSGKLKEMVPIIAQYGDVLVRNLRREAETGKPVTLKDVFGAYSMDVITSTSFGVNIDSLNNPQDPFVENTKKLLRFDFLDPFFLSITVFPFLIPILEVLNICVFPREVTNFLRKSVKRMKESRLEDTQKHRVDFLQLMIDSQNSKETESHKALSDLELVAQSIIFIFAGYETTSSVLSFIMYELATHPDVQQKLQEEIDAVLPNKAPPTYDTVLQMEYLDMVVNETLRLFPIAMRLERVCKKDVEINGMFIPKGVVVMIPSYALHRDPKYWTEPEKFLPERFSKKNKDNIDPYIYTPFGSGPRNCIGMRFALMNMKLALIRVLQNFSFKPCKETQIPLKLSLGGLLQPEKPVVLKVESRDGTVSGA
Method: The inhibitory potential of compounds on cytochrome P450 (CYP450) subtype CYP3A4 (two substrates of midazolam and testosterone) was detected. First, the compound to be tested was prepared into a 10 mM stock solution in DMSO solvent, and the CYP3A4 inhibitor ketoconazole was prepared as 10 mM, 2.5 mM and 2.5 mM stock solutions in DMSO solvent. The test compound and ketoconazole were diluted to 400-fold final concentration (compound: 10 μM, ketoconazole: 2.5 μM) with acetonitrile.
NADPH cofactor (10 mL of potassium phosphate buffer added with 66.7 mg NADPH) at 4-fold final concentration and substrates were prepared with potassium phosphate buffer (0.1 M, pH=7.4), with CYP3A4 substrate midazolam at a final concentration of […] and CYP3A4 substrate testosterone at a final concentration of 20 μM.
A human liver microsome solution at a concentration of 0.2 mg/mL was prepared with potassium phosphate buffer on ice. A solution of the compound to be tested and a control inhibitor (control compound) solution at 2-fold final concentration were prepared with the human liver microsome solution on ice. The test wells were added with […] of the test compound solution and the control inhibitor solution respectively, and then added with […] of the substrate for duplication. A 96-well assay plate and a NADPH solution were incubated at 37° C. for 5 min, and 15 μL of pre-heated 8 mM NADPH solution was added to the assay plate to initiate the reaction. A CYP3A4 assay plate was pre-incubated at 37° C. for 5 min. The plate was added with 120 μL of acetonitrile to terminate the reaction, and after quenching, the plate was shaken on a shaker (IKA, MTS 2/4) for 10 min (600 rpm/min), and then centrifuged for 15 min. After centrifugation, the supernatant was collected, and added with purified water in a ratio of 1:1 to perform LC-MS/MS detection. A ratio of a peak area of compound to a peak area of internal standard was obtained, and the peak area ratio of the compound was compared with the peak area ratio of the control inhibitor to calculate the inhibition rate.

Row | Structure (SMILES) | IC50 (H358 cells) [nM] | IC50 [1] [nM] | IC50 (KRAS G12C-SOS1) [nM] | other results
1 | COCC1(n2cc3c(N[C@H](C)c4cccc(S(F)(F)(F)(F)F)c4)nc(C)nc3cc2=O)CC1 [Compound I-13, (R)-6-(1-(methoxymethyl)cyclopropyl)-2-methyl-4-((1-(3-(pentafluorosulfanyl)phenyl)ethyl)amino)pyrido[4,3-d]pyrimidin-7(6H)-one] | 15.7 | 109 |  | 
2 | Cc1nc(N[C@H](C)c2cccc(S(F)(F)(F)(F)F)c2)c2cn(C3CC(F)(F)C3)c(=O)cc2n1 [Compound I-16, (R)-6-(3,3-difluorocyclobutyl)-2-methyl-4-((1-(3-(pentafluorosulfanyl)phenyl)ethyl)amino)pyrido[4,3-d]pyrimidin-7(6H)-one] |  |  | 16.1 | 
3 | Cc1nc(N[C@H](C)c2cccc(S(F)(F)(F)(F)F)c2)c2cn([C@H]3C[C@H](F)C3)c(=O)cc2n1 [Compound I-19, 6-((1R,3R)-3-fluorocyclobutyl)-2-methyl-4-(((R)-1-(3-(pentafluorosulfanyl)phenyl)ethyl)amino)pyrido[4,3-d]pyrimidin-7(6H)-one] | 137 | 131 | 9.5 | 
4 | Cc1nc(N[C@H](C)c2cccc(S(F)(F)(F)(F)F)c2)c2cn([C@H]3C[C@](C)(O)C3)c(=O)cc2n1 [Compound I-15, 6-((1r,3R)-3-hydroxy-3-methylcyclobutyl)-2-methyl-4-(((R)-1-(3-(pentafluorosulfanyl)phenyl)ethyl)amino)pyrido[4,3-d]pyrimidin-7(6H)-one] |  |  | 14.4 | 
5 | CC(=O)N1CCC(C)(n2cc3c(N[C@H](C)c4cccc(S(F)(F)(F)(F)F)c4)nc(C)nc3cc2=O)CC1 [Compound I-17, (R)-6-(1-acetyl-4-methylpiperidin-4-yl)-2-methyl-4-((1-(3-(pentafluorosulfanyl)phenyl)ethyl)amino)pyrido[4,3-d]pyrimidin-7(6H)-one] | 12.1 | 119 |  | 
6 | Cc1nc(N[C@H](C)c2cccc(S(F)(F)(F)(F)F)c2)c2cn(C3(C)CC3)c(=O)cc2n1 [Compound I-22, (R)-2-methyl-6-(1-methylcyclopropyl)-4-((1-(3-(pentafluorosulfanyl)phenyl)ethyl)amino)pyrido[4,3-d]pyrimidin-7(6H)-one] | 10.7 |  | 21.7 | 
7 | Cc1nc(N[C@H](C)c2cccc(S(F)(F)(F)(F)F)c2)c2cn(C3(C)CCOCC3)c(=O)cc2n1 [Compound I-21, (R)-2-methyl-6-(4-methyltetrahydro-2H-pyran-4-yl)-4-((1-(3-(pentafluorosulfanyl)phenyl)ethyl)amino)pyrido[4,3-d]pyrimidin-7(6H)-one] | 85.1 | 141 | 6.9 | 
8 | CC(=O)Nc1cccc(-n2c(=O)n(C3CC3)c(=O)c3c(Nc4ccc(I)cc4F)n(C)c(=O)c(C)c32)c1 [Trametinib, reference compound] |  |  |  | Tumor weight inhibition rate (relative to the vehicle group) [2]: 80%
9 | CC(=O)N1CCC(C)(n2cc3c(N[C@H](C)c4cccc(S(F)(F)(F)(F)F)c4)nc(C)nc3cc2=O)C1 (stereo partly drawn) [Compound I-18, 6-(1-acetyl-3-methylpyrrolidin-3-yl)-2-methyl-4-(((R)-1-(3-(pentafluorosulfanyl)phenyl)ethyl)amino)pyrido[4,3-d]pyrimidin-7(6H)-one] | 9.2 | 115 |  | 
10 | Cc1nc(N[C@H](C)c2cccc(S(F)(F)(F)(F)F)c2)c2cn(C3(C)CCOC3)c(=O)cc2n1 (stereo partly drawn) [Compound I-20, 2-methyl-6-(3-methyltetrahydrofuran-3-yl)-4-(((R)-1-(3-(pentafluorosulfanyl)phenyl)ethyl)amino)pyrido[4,3-d]pyrimidin-7(6H)-one] | 31 | 92 |  | 
11 | Cc1nc(N[C@H](C)c2cccc(C(F)F)c2F)c2cn(C3(C(F)F)CC3)c(=O)cc2n1 [Control compound II, reference compound] |  |  |  | AUC(0-t) [3]: 1000 ng·h/mL; Cmax [3]: 669 ng/mL; Tmax [3]: 30 min; half-life [3]: 57.6 min
12 | Cc1nc(N[C@H](C)c2cccc(OC(F)F)c2F)c2cn(C3(C(F)F)CC3)c(=O)cc2n1 [Compound I-12, (R)-4-((1-(3-(difluoromethoxy)-2-fluorophenyl)ethyl)amino)-6-(1-(difluoromethyl)cyclopropyl)-2-methylpyrido[4,3-d]pyrimidin-7(6H)-one] |  | 196 | 22.2 | 
13 | Cc1nc(N[C@H](C)c2cccc(S(F)(F)(F)(F)F)c2)c2cn(C3(CF)CC3)c(=O)cc2n1 [Compound I-3, (R)-6-(1-(fluoromethyl)cyclopropyl)-2-methyl-4-((1-(3-(pentafluorosulfanyl)phenyl)ethyl)amino)pyrido[4,3-d]pyrimidin-7(6H)-one] |  |  |  | inhibitory effect on CYP3A4 enzymes (in words) (CYP3A4): more significant inhibitory effect
